Experimental data from patent publication US8686113B2 (priority 2009, dated 2014).
Values after ≈ are worked out from the molar mass of the structure shown. Like-named read-outs stand apart in the source and are kept apart here. Non-standard residues stand in square brackets, D forms with d. Residues, ends and D or L forms follow the SMILES beside them. *: point of attachment. Guan = N-terminal guanidation, N=C(N)*; Hyp = O=C(O)[C@@H]1C[C@@H](O)CN1; dOrn = NCCC[C@@H](N)C(=O)O; code O = not defined here; Orn = NCCC[C@H](N)C(=O)O

How the values were obtained:
[1] = system: E. coli BL21 A1; type: cell-based, Escherichia coli
Protocol: (§1) The minimum inhibitory concentrations (MIC) of the antimicrobial peptides and peptide derivatives were determined in microdilution assays. These used a continuous peptide dilution in sterile flat-bottomed 96-well microtiter plates (polystyrene, Greiner Bio-One GmbH, Frickenhausen, Germany) and a total volume of 100 μL per well. The aqueous peptide or peptidomimetic solutions were diluted with 1% TSB water, to obtain a final concentration of 256 μg/mL. 50 μL of the peptide or peptidomimetic solution was pipetted into the first well of each series and stirred. From this solution, 50 μL was transferred to the second well, stirred and again 50 μL was transferred to the next well, and so on. A double dilution series is obtained, beginning at 256 μg/mL in the first well to 125 ng/mL in the twelfth well. The bacteria, e.g. E. coli BL21 A1, were cultured overnight at 37° C. in nutrient broth (NB, Carl Roth GmbH+Co. KG, Karlsruhe, Germany). 50 μL of a 5×10^6 bacteria/mL suspension in 1% TSB was added to each well of the microtiter plate and thus a final concentration of the peptides or peptidomimetics from 128 μg/mL (well 1) to 62.5 ng/mL (well 12) was established in each series. The plates were incubated at 37° C. for 20 h and then the absorption was measured at 595 nm with a TECAN microtiter plate spectrophotometer (Tecan Trading AG, Mannedorf, Switzerland). The MIC values of all peptides and peptidomimetics were determined in triplicate. Sterile water was used as negative control. The MIC value represents the lowest peptide concentration at which no bacterial growth is observed after an incubation time of 20 h at 37° C.
(§2) The MIC values of the peptides and peptide derivatives against Escherichia coli BL21 A1 and Micrococcus luteus ATCC 10240 are given in Table 7.

[2] = system: M. luteus 10240; assay: Growth inhibition assay (microdilution MIC); type: cell-based, Micrococcus luteus
Protocol: as §1, §2

Compound | MIC E. coli BL21 A1 ([1]; BL21, 20 h) [µg/mL] | MIC M. luteus 10240 ([2]; 10240, 20 h) [µg/mL] | also measured
H-VDKPPYLPRPRPPRRLYNR-NH2 [compound 78] | 8 | 16 | 
CC[C@H](C)[C@H](NC(=O)[C@H](Cc1ccc(O)cc1)NC(=O)[C@H](CC(N)=O)NC(=O)[C@@H](N)CCCN)C(=O)N1C[C@H](O)C[C@H]1C(=O)N[C@@H](CCCNC(=N)N)C(=O)N1CCC[C@H]1C(=O)N1CCC[C@H]1C(=O)N[C@@H](CCCNC(=N)N)C(=O)N1CCC[C@H]1C(=O)N[C@@H](CCCNC(=N)N)C(=O)N1CCC[C@H]1C(=O)N[C@@H](CC(C)C)C(=O)N[C@@H](Cc1ccc(O)cc1)C(=O)N1CCC[C@H]1C(=O)N1CCC[C@H]1C(=O)N[C@@H](CCCCN)C(=O)N[C@@H](CC(=O)O)C(=O)N[C@H](C(N)=O)C(C)C [compound 114] (H-[Orn]NYI[Hyp]RPPRPRPLYPPKDV-NH2) | >256 | 128 (≈ 55.5 µM) | 
H-VDKPPYLPRPPPPRRIYN-NH2 [compound 1] | 128 |  | 
H-VDKPPYLPRPAPPRRIYNR-NH2 [compound 39] | 64 | 16 | 
CC[C@H](C)[C@H](NC(=O)[C@@H](CCCNC(=N)N)NC(=O)[C@H](CCCNC(=N)N)NC(=O)[C@@H]1CCCN1C(=O)[C@@H]1CCCN1C(=O)[C@H](CCCNC(=N)N)NC(=O)[C@@H]1CCCN1C(=O)[C@H](CCCNC(=N)N)NC(=O)[C@@H]1CCCN1C(=O)[C@H](CC(C)C)NC(=O)[C@H](Cc1ccc(O)cc1)NC(=O)[C@@H]1CCCN1C(=O)[C@@H]1CCCN1C(=O)[C@H](CCCCN)NC(=O)[C@H](CC(=O)O)NC(=O)[C@@H](N)C(C)C)C(=O)N[C@@H](Cc1ccc(O)cc1)C(=O)N[C@@H](CC(N)=O)C(=O)N[C@H](CCCNC(=N)N)C(N)=O [compound 112] (H-VDKPPYLPRPRPPR[dR]IYN[dR]-NH2) | 4 (≈ 1.67 µM) |  | 
CC[C@H](C)[C@H](NC(=O)[C@H](CCCNC(=N)N)NC(=O)[C@H](CCCNC(=N)N)NC(=O)[C@@H]1CCCN1C(=O)[C@@H]1CCCN1C(=O)[C@@H]1C[C@@H](O)CN1C(=O)[C@@H]1CCCN1C(=O)[C@H](CCCNC(=N)N)NC(=O)[C@@H]1CCCN1C(=O)[C@H](CC(C)C)NC(=O)[C@H](Cc1ccc(O)cc1)NC(=O)[C@@H]1CCCN1C(=O)[C@@H]1CCCN1C(=O)[C@H](CCCCN)NC(=O)[C@H](CC(=O)O)NC(=O)[C@@H](N)C(C)C)C(=O)N[C@@H](Cc1ccc(O)cc1)C(=O)N[C@@H](CC(N)=O)C(=O)N[C@@H](CCCNC(=N)N)C(=O)O [compound 3] (H-VDKPPYLPRP[Hyp]PPRRIYNR-OH) | 128 (≈ 54.5 µM) | 32 (≈ 13.6 µM) | 
CC[C@H](C)[C@H](NC(=O)[C@H](CCCNC(=N)N)NC(=O)[C@H](CCCNC(=N)N)NC(=O)[C@@H]1CCCN1C(=O)[C@@H]1CCCN1C(=O)[C@H](CCCNC(=N)N)NC(=O)[C@@H]1CCCN1C(=O)[C@H](CCCNC(=N)N)NC(=O)[C@@H]1CCCN1C(=O)[C@H](CC(C)C)NC(=O)[C@H](Cc1ccc(O)cc1)NC(=O)[C@@H]1CCCN1C(=O)[C@@H]1CCCN1C(=O)[C@H](CCCCN)NC(=O)[C@H](CC(=O)O)NC(=O)[C@@H](N)C(C)C)C(=O)N[C@@H](Cc1ccc(O)cc1)C(=O)N[C@@H](CC(N)=O)C(=O)N[C@@H](CCCN)C(=O)N[C@@H](CC(N)=O)C(N)=O [compound 26] (H-VDKPPYLPRPRPPRRIYN[Orn]N-NH2) | 8 (≈ 3.25 µM) | 8 (≈ 3.25 µM) | 
H-VDKPPYLPRPRPPRRIANR-NH2 [compound 45] | 8 | 16 | 
H-VAKPPYLPRPRPPRRIYNR-NH2 [compound 30] | 16 | 4 | 
CC[C@@H](C)[C@@H](NC(=O)[C@@H](CCCN)NC(=O)[C@@H](CCCNC(=N)N)NC(=O)[C@H]1CCCN1C(=O)[C@H]1CCCN1C(=O)[C@@H](CCCNC(=N)N)NC(=O)[C@H]1CCCN1C(=O)[C@@H](CCCNC(=N)N)NC(=O)[C@H]1CCCN1C(=O)[C@@H](CC(C)C)NC(=O)[C@@H](Cc1ccc(O)cc1)NC(=O)[C@H]1CCCN1C(=O)[C@H]1CCCN1C(=O)[C@@H](CCCCN)NC(=O)[C@@H](CC(=O)O)NC(=O)[C@H](N)C(C)C)C(=O)N[C@H](Cc1ccc(O)cc1)C(=O)N[C@H](CC(N)=O)C(=O)N[C@H](CCCN)C(N)=O [SEQ ID NO. 116, vdkppylprprpproiyno-NH2] (H-[dV][dD][dK][dP][dP][dY][dL][dP][dR][dP][dR][dP][dP][dR][dOrn][dI][dY][dN][dOrn]-NH2) |  | 128 (≈ 55.5 µM) | 
CC[C@H](C)[C@H](NC(=O)[C@H](CCCN)NC(=O)[C@H](CCCNC(=N)N)NC(=O)[C@@H]1CCCN1C(=O)[C@@H]1CCCN1C(=O)[C@H](CCCNC(=N)N)NC(=O)[C@@H]1CCCN1C(=O)[C@H](CCCNC(=N)N)NC(=O)[C@@H]1CCCN1C(=O)[C@H](CC(C)C)NC(=O)[C@H](Cc1ccc(O)cc1)NC(=O)[C@@H]1CCCN1C(=O)[C@@H]1CCCN1C(=O)[C@H](CCCCN)NC(=O)[C@H](CC(=O)O)NC(=O)[C@@H](N)C(C)C)C(=O)N[C@@H](Cc1ccc(O)cc1)C(=O)N[C@@H](CCC(N)=O)C(=O)N[C@@H](CCCN)C(N)=O [compound 74] (H-VDKPPYLPRPRPPR[Orn]IYQ[Orn]-NH2) |  | 8 (≈ 3.45 µM) | 
H-GNNRPVYIPQPRPPHPRL-OH [SEQ ID NO. 87, reference compound] |  |  | MIC M. luteus 10240 ([2]; 1% TSB, 20 h at 37° C.): 64 µg/mL
H-VDKPPYLPRPRPPRRIYNH-NH2 [compound 53] |  | 16 | 
84 (Guan-VDKPPYLPRPRPPRRIYNR-NH2) [compound 84] |  |  | MIC E. coli BL21 A1 ([1]; 1% TSB, 20 h at 37° C.): 32 µg/mL
85 (Guan-VDKPPYLPRPRPPR[code O]IYN[code O]-NH2; reading uncertain; also: printed as Guan-VDKPPYLPRPRPPROIYNO-NH2) [compound 85] |  |  | MIC E. coli BL21 A1 ([1]; 1% TSB, 20 h at 37° C.): 64 µg/mL
CC[C@@H](C)[C@@H](NC(=O)[C@@H](Cc1ccc(O)cc1)NC(=O)[C@@H](CC(N)=O)NC(=O)[C@H](N)CCCNC(=N)N)C(=O)N[C@H](CCCNC(=N)N)C(=O)N[C@H](CCCNC(=N)N)C(=O)N1CCC[C@@H]1C(=O)N1CCC[C@@H]1C(=O)N[C@H](CCCNC(=N)N)C(=O)N1CCC[C@@H]1C(=O)N[C@H](CCCNC(=N)N)C(=O)N1CCC[C@@H]1C(=O)N[C@H](CC(C)C)C(=O)N[C@H](Cc1ccc(O)cc1)C(=O)N1CCC[C@@H]1C(=O)N1CCC[C@@H]1C(=O)N[C@H](CCCCN)C(=O)N[C@H](CC(=O)O)C(=O)N[C@@H](C(N)=O)C(C)C [SEQ ID NO. 117, rnyirrpprprplyppkdv-NH2] (H-[dR][dN][dY][dI][dR][dR][dP][dP][dR][dP][dR][dP][dL][dY][dP][dP][dK][dD][dV]-NH2) | 64 to 256 |  | 
CC[C@@H](C)[C@@H](NC(=O)[C@@H](Cc1ccc(O)cc1)NC(=O)[C@@H](CC(N)=O)NC(=O)[C@H](N)CCCN)C(=O)N[C@H](CCCN)C(=O)N[C@H](CCCNC(=N)N)C(=O)N1CCC[C@@H]1C(=O)N1CCC[C@@H]1C(=O)N[C@H](CCCNC(=N)N)C(=O)N1CCC[C@@H]1C(=O)N[C@H](CCCNC(=N)N)C(=O)N1CCC[C@@H]1C(=O)N[C@H](CC(C)C)C(=O)N[C@H](Cc1ccc(O)cc1)C(=O)N1CCC[C@@H]1C(=O)N1CCC[C@@H]1C(=O)N[C@H](CCCCN)C(=O)N[C@H](CC(=O)O)C(=O)N[C@@H](C(N)=O)C(C)C [SEQ ID NO. 118, onyiorpprprplyppkdv-NH2] (H-[dOrn][dN][dY][dI][dOrn][dR][dP][dP][dR][dP][dR][dP][dL][dY][dP][dP][dK][dD][dV]-NH2) | 64 to 256 |  | 
H-VDKPPYLPRPRPPRRIYNH-NH2 [SEQ ID NO. 53] | 16 |  | times lower activity / higher MIC value than oncocin against E. coli [1]: 4 times
CC[C@H](C)[C@H](NC(=O)[C@H](CCCN)NC(=O)[C@H](CCCNC(=N)N)NC(=O)[C@@H]1CCCN1C(=O)[C@@H]1CCCN1C(=O)[C@H](CCCNC(=N)N)NC(=O)[C@@H]1CCCN1C(=O)[C@H](CCCNC(=N)N)NC(=O)[C@@H]1CCCN1C(=O)[C@H](CC(C)C)NC(=O)[C@H](Cc1ccc(O)cc1)NC(=O)[C@@H]1CCCN1C(=O)[C@@H]1CCCN1C(=O)[C@H](CCCCN)NC(=O)[C@H](CC(=O)O)NC(=O)[C@@H](N)C(C)C)C(=O)N[C@@H](Cc1ccc(O)cc1)C(=O)N[C@@H](CCC(N)=O)C(=O)N[C@@H](CCCN)C(N)=O [SEQ ID NO. 74, VDKPPYLPRPRPPROIYQO-NH2] (H-VDKPPYLPRPRPPR[Orn]IYQ[Orn]-NH2) | 4 (≈ 1.72 µM) |  | 
CC[C@@H](C)[C@@H](NC(=O)[C@@H](CCCNC(=N)N)NC(=O)[C@@H](CCCNC(=N)N)NC(=O)[C@H]1CCCN1C(=O)[C@H]1CCCN1C(=O)[C@@H](CCCNC(=N)N)NC(=O)[C@H]1CCCN1C(=O)[C@@H](CCCNC(=N)N)NC(=O)[C@H]1CCCN1C(=O)[C@@H](CC(C)C)NC(=O)[C@@H](Cc1ccc(O)cc1)NC(=O)[C@H]1CCCN1C(=O)[C@H]1CCCN1C(=O)[C@@H](CCCCN)NC(=O)[C@@H](CC(=O)O)NC(=O)[C@H](N)C(C)C)C(=O)N[C@H](Cc1ccc(O)cc1)C(=O)N[C@H](CC(N)=O)C(=O)N[C@H](CCCNC(=N)N)C(N)=O [SEQ ID NO. 115, vdkppylprprpprriynr-NH2] (H-[dV][dD][dK][dP][dP][dY][dL][dP][dR][dP][dR][dP][dP][dR][dR][dI][dY][dN][dR]-NH2) |  | 64 (≈ 26.8 µM) | 
H-VDKPPYLPRPRPPRRIYN-OH [compound 28] |  | 128 | 
